“Also recorded” adds a separate entry of the source.
What was measured:
[1] = system: intracellular GSH in rat primary astrocytes; assay: Intracellular GSH / GSSG in rat primary astrocytes; type: cell-based; conditions: 10 mM NAC 1 h; TNF-α or IL-1β 50 ng/ml; diamide 0.5 mM
Procedure: Measurement of reduced glutathione (GSH) concentration in rat primary astrocytes Concentration of intracellular GSH was measured using a colorimetric assay kit for GSH from RandD, USA. Briefly, 2×10^6 cells were homogenized in 500 μl of ice-cold 5% metaphosphoric acid and centrifuged at 3000 g for 10 min. Supernatants were used to assay GSH using 4-chloro-1-methyl-7-trifluoromethyl-quinolinium methylsulfate and 30% NaOH at 400 nm.
Measurement of GSH (Reduced Glutathione) and GSSG Oxidized Glutathione Concentration of intracellular reduced GSH was measured using a calorimetric assay kit for GSH from R & D Systems. Briefly, 2×10^6 cells were homogenized in 500 μl of ice-cold 5% metaphosphoric acid and centrifuged at 3000×g for 10 min. Supernatants were used to assay GSH using 4-chloro-1-methyl-7-trifluoromethylquinolinium methylsulfate and 30% NaOH at 400 nm. Concentration of GSSG was determined according to the method of Griffith (1980) after derivatization with 2-vinylpyridine for 30 min at room temperature.

[2] = system: NOS activity in rat resident macrophages; assay: NOS activity (L-citrulline from L-arginine) in homogenates of treated rat resident macrophages; type: cell-based; conditions: for inhibition at 20000 µM: Rattus norvegicus, Macrophage
Procedure: NOS activity was measured directly by production of L-[2,3,4,5-^3H]citrulline from L-[2,3,4,5-^3H] arginine (Feinstein et al., 1994a). […] Assays were carried out for 30 to 40 min and the production of L-[2,3,4,5-^3H] citrulline was linear. The reactions were stopped by addition of 800 μl of ice-cold 20 mM HEPES (pH 5.5) followed by addition of 2 ml of Dowex-50W equilibrated in the same buffer. The samples were then centrifuged and the concentration of L-[^3H]citrulline was determined in the supernatant by liquid scintillation counting.

[3] = system: rat primary oligodendrocytes; assay: Apoptosis (DNA fragmentation, laddering) in rat primary oligodendrocytes; type: cell-based; conditions: 10 mM NAC 1 h; diamide 0.5 mM, TNF-α 50 ng/ml or C2-ceramide; 12 h
Procedure: Detection of DNA fragmentation Cells (1×10^6) were pelleted in an eppendorf tube by centrifugation at 1,000 rpm for 5 min, washed with PBS (pH 7.4), resuspended gently in 50 μl of a lysis buffer [200 mM NaCl, 10 mM Tris-HCl (pH 8.0), 40 mM EDTA (pH 8.0), 0.5% SDS, 400 ng RNase A/μl] and incubated at 37° C. for 1 h. The lysate received 200 μl of the digestion buffer [200 mM NaCl, 10 mM Tris-HCl (pH 8.0), 0.5% SDS, 125 ng proteinase K/μl]. The contents were mixed by inversion several times and then incubated at 50° C. for 2 h. An equal volume of a mixture phenol (pH 8.0), chloroform and isoamyl alcohol (25:24:1, v/v) was added, gently mixed for 10 min, and stored at room temperature for 2 min. […] The gel was stained with ethidium bromide and DNA-intercalated ethidium fluorescence was photographed on Polaroid film 665 (P/N) using an orange filter. […]
Detection of DNA Fragmentation Cells (1×10^6) were pelleted in an Eppendorf tube by centrifugation at 1000 rpm for 5 min, washed with phosphate-buffered saline, pH 7.4, resuspended gently in 50 μl of a lysis buffer (200 mM NaCl, 10 mM Tris-HCl, pH 8.0, 40 mM EDTA, pH 8.0, 0.5% SDS, 400 ng of RNase A/μl), and incubated at 37° C. for 1 h. […] The gel was stained with ethidium bromide, and DNA-intercalated ethidium fluorescence was photographed on Polaroid film 665 (P/N) using an orange filter. […]

[4] = in vivo; cited from earlier work
[5] = IFN-γ 200 U/ml, NAC 20 mM 2 h before
[6] = IL-1β 200 ng/ml, NAC 20 mM 2 h before
[7] = LPS 0.2 μg/ml + IFN-γ 50 U/ml, NAC 20 mM 2 h before
[8] = LPS 0.2 μg/ml + IL-1β 25 ng/ml, NAC 20 mM 2 h before
[9] = LPS 0.2 μg/ml + TNF-α 20 ng/ml, NAC 20 mM 2 h before
[10] = LPS 1.0 μg/ml, NAC 20 mM 2 h before
[11] = TNF-α 20 ng/ml + IFN-γ 50 U/ml, NAC 20 mM 2 h before
[12] = TNF-α 20 ng/ml + IL-1β 25 ng/ml, NAC 20 mM 2 h before
[13] = TNF-α 100 ng/ml, NAC 20 mM 2 h before
[14] = no stimulus (Control), NAC 20 mM

CC(=O)N[C@@H](CS)C(=O)O [NAC, N-acetyl cysteine]
intracellular level of GSH / GSSG [1]: intracellular level of GSH did not decrease when cells were stimulated with cytokines in presence of NAC; also recorded: lack of decrease of GSH | L-citrulline (NOS activity) [2, 5]: 13.2 ± 2.4 pmol/min/mg | L-citrulline (NOS activity) [2, 6]: 12.9 ± 2.1 pmol/min/mg | L-citrulline (NOS activity) [2, 7]: 32.3 ± 4.6 pmol/min/mg | L-citrulline (NOS activity) [2, 8]: 44.9 ± 6.1 pmol/min/mg | L-citrulline (NOS activity) [2, 9]: 19.7 ± 2.7 pmol/min/mg | LPS-induced NOS activity, L-citrulline formation ([2]; LPS 1.0 μg/ml, 24 h): formation of L-citrulline was strongly inhibited; also recorded: inhibited LPS-induced NOS activity | L-citrulline (NOS activity) [2, 10]: 14.2 ± 2.3 pmol/min/mg | inhibition at 20000 µM [2, 5]: 90% | inhibition at 20000 µM [2, 6]: 43% | inhibition at 20000 µM [2, 7]: 83% | inhibition at 20000 µM [2, 8]: 78% | inhibition at 20000 µM [2, 9]: 91% | inhibition at 20000 µM [2, 10]: 91% | inhibition at 20000 µM [2, 11]: 82% | inhibition at 20000 µM [2, 12]: 85% | inhibition at 20000 µM [2, 13]: 61% | inhibition at 20000 µM [2, 14]: 25% | L-citrulline (NOS activity) [2, 11]: 36.9 ± 3.4 pmol/min/mg | L-citrulline (NOS activity) [2, 12]: 28.2 ± 4.3 pmol/min/mg | L-citrulline (NOS activity) [2, 13]: 12.9 ± 2.3 pmol/min/mg | L-citrulline (NOS activity) [2, 14]: 10.2 ± 0.9 pmol/min/mg | ceramide formation and DNA fragmentation / apoptosis [3]: inhibited the induction of ceramide formation and DNA fragmentation; also recorded: had no effect on C2-ceramide-mediated apoptosis in oligodendrocytes

O=C([O-])Cc1ccccc1.[Na+] [NaPA, sodium salt of phenylacetic acid]
pharmacologically attainable concentration [4]: 1 to 5 mM
